Reference: paper PMC3828642 (AoB Plants, 2013)
Each block holds one compound with its values, some of them ahead of it.

Key:
Assay type in all cases: biochemical
[1] = target: T1, 1-aminocyclopropane-1-carboxylic acid oxidase (ACCO1) (Malus domestica, UniProt Q00985); test: steady-state kinetics (data not shown)
[2] = target: T1, 1-aminocyclopropane-1-carboxylic acid oxidase (ACCO1); test: steady-state kinetics, ethylene assay by GC; design: purified ACCO fusion protein
[3] = target: T1, 1-aminocyclopropane-1-carboxylic acid oxidase (ACCO1); test: steady-state kinetics, ethylene assay by GC, double reciprocal plot; UV/Vis spectrum; design: His-Tag fusion protein expressed in E. coli
[4] = target: T1, 1-aminocyclopropane-1-carboxylic acid oxidase (ACCO1); test: steady-state kinetics, competitive activation (Ka), double reciprocal plot; design: purified recombinant ACCO

T1 sequence (Q00985 whole entry, the tested form may be a part): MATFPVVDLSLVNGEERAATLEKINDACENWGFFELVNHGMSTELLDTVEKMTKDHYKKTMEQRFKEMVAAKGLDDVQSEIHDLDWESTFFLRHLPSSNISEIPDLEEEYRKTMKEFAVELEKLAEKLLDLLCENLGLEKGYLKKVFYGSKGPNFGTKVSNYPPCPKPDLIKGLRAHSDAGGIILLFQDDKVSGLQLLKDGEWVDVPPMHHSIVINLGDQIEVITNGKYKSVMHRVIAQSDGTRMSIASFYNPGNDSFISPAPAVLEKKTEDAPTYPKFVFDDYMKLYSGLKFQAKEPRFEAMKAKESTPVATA

Ki [1]: 930 µM
Structure (SMILES): O=C(O)CC(=O)C(=O)O [Oxaloacetic acid]

Structure (SMILES): O=C(O)[C@@H](O)[C@H]1OC(=O)[C@H](O)[C@H]1O [D-Saccharic acid 1,4-lactone]
Ki [2]: 300 µM

Ki [3]: 200 µM
Structure (SMILES): Cc1ncc(COP(=O)(O)O)c(C=O)c1O [Pyridoxal-5′-phosphate]

steady-state kinetics, competitive activation (Ka), double reciprocal plot [4]: 2.2 mM
Structure (SMILES): O=c1[nH]c(=O)c2nccnc2[nH]1 [2,4-pteridinediol]

Ki [1]: 70 µM
Structure (SMILES): O=C(O)CC(=O)O [Malonic acid]
